From patent publication US20230287083A1, “CD1 PEPTIDE-EPITOPE FOR USE IN THE TREATMENT OF A DISEASE CAUSED BY AN INT[…]” (priority 2020, published 2023)
Residues, ends and D or L forms follow the SMILES beside them.

Columns and labels:
[1] = test system: HSV; test: Cellular immune response towards live-attenuated HSV vaccine after peptide pre-immunization; type: in vivo, BALB/c mice; conditions: one month after last injection
Procedure: BALB/c mice are immunized in footpath with 100 μg of peptide of SEQ ID NO:5 emulsified in complete Freund's adjuvant, and this injection is repeated once after an interval of 2 weeks, the second injection being made in incomplete Freund's adjuvant. A control group of BALB/c mice is treated with adjuvant alone.
All mice then receive a commercial preparation of live-attenuated HSV on 2 occasions separated by one month.
One month after the last injection, the immune response towards the vaccine is compared between the 2 groups.

[2] = test system: NS5; test: NS5-specific activation of splenic CD3+ lymphocytes (3H-thymidine incorporation) after peptide pre-injection and NS5 vaccination; type: in vivo, C57BL/6 mice
Procedure: (§1) Peptide of SEQ ID NO:1 is emulsified in complete Freund's adjuvant and injected subcutaneously at a dose of 100 μg in a series of C57BL/6 mice, followed after 2 weeks by the same injection in incomplete Freund's adjuvant. A control group is injected according to the same schedule with adjuvant alone.
(§2) Two weeks after the last injection both groups of mice are treated by a subcutaneous injection of NS5 protein in alum, repeated every 2 weeks four times.
(§3) The spleen of all mice is obtained one month after the last injection and the population of CD3+ lymphocytes isolated by FACS sorting.
Cells are then maintained in culture in the presence of antigen-presenting cells loaded with NS5 and the proportion of activated cells numbered after 6 days by incorporation of 3H-thymidine.

[3] = test system: NS5; test: Detection of NS5-specific NKT cells (PLZF staining) with JAWS2 presenting cells; type: in vivo, C57BL/6 mice; conditions: CD3+ cells incubated with JAWS2 presenting cells
Procedure: as §1, §2, §3
In parallel experiments CD3+ cells are incubated with JAWS2 as presenting cells.

[4] = test system: NS5; test: Same NS5 experiment repeated in BALB/c mice; type: in vivo
[5] = test system: SARS-CoV-2 S protein; test: Splenocyte immune response towards S protein after peptide pretreatment and S protein immunization; type: in vivo, C57BL/6 mice
Procedure: (§4) Peptide of SEQ ID NO:3 is used to immunize C57BL/6 mice at a dose of 100 μg emulsified in complete Freund's adjuvant, followed by a second injection of 100 μg in incomplete Freund's adjuvant 3 weeks later. A control group receives only the adjuvant.
(§5) Both groups of mice are then immunized with 100 μg of S protein in alum, administered at 2-week intervals, starting 3 weeks after injection of peptide of SEQ ID NO:3 (or adjuvant), for a total of 4 injections at 2 weeks interval.
(§6) The immune response towards S protein is then evaluated on splenocytes retrieved either 2 or 6 months after the last injection and titers of specific antibodies are evaluated on serum.

[6] = test system: SARS-CoV-2 S protein; test: Specific anti-S protein antibody titers and isotypes in serum; type: in vivo, C57BL/6 mice; conditions: for specific anti-S protein antibody titers: vs control
Procedure: as §4, §5, §6

[7] = test system: Coxsackie B4-V; test: Coxsackie B4-V infection, pancreas cellular infiltration / pancreatitis; type: in vivo, BALB/c mice
Procedure: BALB/c mice are immunized by footpath injection of 100 μg of peptide of SEQ ID NO:2 emulsified in Freund's adjuvant, on 2 occasions at a 2-weeks interval. A control group is injected with the adjuvant alone.
All mice are then immunized with the full polyprotein adsorbed on alum, using 100 μg per injection, for a total of 4 injections administered at an interval of 2 weeks.
Three weeks after the last injection, all mice are infected with 50 PFU of the B4-V strains in peritoneum.
Within 3 days after infection, the pancreas of 50% of the mice is isolated and examined for cellular infiltration. All mice in the control group show massive infiltration by mononuclear cells in the acini.

[8] = test system: hemagglutinin from influenza A virus; set-up: species or system C57BL/6 mice; conditions: mouse, in vivo
[9] = test system: hemagglutinin from influenza A virus; set-up: species or system C57BL/6 mice; conditions: mouse, in vivo; remark: listed apart in the source
[10] = test system: hemagglutinin from influenza A virus; set-up: species or system C57BL/6 mice; conditions: mouse, in vivo; remark: listed apart in the source
[11] = C57BL/6, vs adjuvant-only control

## CC(C)C[C@H](NC(=O)[C@H](Cc1c[nH]cn1)NC(=O)[C@H](CC(C)C)NC(=O)[C@H](Cc1ccccc1)NC(=O)[C@H](CC(C)C)NC(=O)[C@@H](N)C(C)C)C(=O)N[C@@H](Cc1ccc(O)cc1)C(=O)N[C@@H](CC(C)C)C(=O)N[C@@H](Cc1ccccc1)C(=O)N[C@@H](CC(C)C)C(=O)N[C@H](C(=O)O)[C@@H](C)O [peptide of SEQ ID NO:5, VL-FLHLYLF-LT] (H-VLFLHLYLFLT-OH)
[1]
  cells sharing a cytotoxicity potential (CD8+ T cells, NK cells, NKT cells): significant expansion

## AG-HGQVDNF-SL [peptide of SEQ ID NO:1]
[2]; C57BL/6, 100 μg peptide s.c. in CFA then IFA before NS5 in alum, vs adjuvant-only control
  total number of NS5-specific cells: significantly higher
[2]; [11]
  number of NS5-specific CD4 cells: higher number is observed
  number of NS5-specific CD8 cells: highly significant
[2]; C57BL/6 and BALB/c, large variations in control groups
  variation in numbers of CD4, CD8 and NKT cells between individuals and between strains: very little variation
[3]
  NS5-specific NKT cells detected by PLZF staining: found only in the group of mice which has been pre-sensitized with peptide of SEQ ID NO:1
[4]
  result of the same experiment in BALB/c mice: essentially the same results

## ATR FASVYAW NRK (FASVYAWNRK) [peptide of SEQ ID NO:3]
[5]; 2 months after last injection, reverse in control group
  number of CD8+ T cells relative to CD4+ T cells: outweigh the number of CD4+ T cells
[5]; 6 months after last injection
  number of CD8+ T cells relative to CD4+ T cells: same trend towards preferential CD8+ T cells
[5]; vs control mice
  numbers of CD3+ lymphocytes towards protein S: significantly higher numbers
[6]; 2 months after end of immunization
  specific anti-S protein antibody titers: significantly higher titers
[6]; 2 months, vs control group
  isotypic distribution of anti-S protein antibodies: dramatic shift from IgG1 in the control group towards IgG2a
[6]; 6 months after end of immunization
  specific anti-S protein antibody titers: significantly higher titers
[6]; after 6 months
  isotypic distribution of anti-S protein antibodies: shift was maintained

## EK-FRDIRGF-LA [peptide of SEQ ID NO:2]
[7]; day 10 after infection, control: persisting infiltration, disappearance of acini structure
  pancreatitis signs: complete resolution of pancreatitis signs
[7]; within 3 days after infection with 50 PFU B4-V, control: massive infiltration
  pancreas cellular infiltration by mononuclear cells in the acini: moderate infiltration

## GL-FGAIAGF-IE [peptide of SEQ ID NO:4]
[8]
  type of immune response towards hemagglutinin (CD8+, NK and NKT cells): dominated by a Th1-like and cytotoxic response
[9]
  ratio of IFN-gamma over IL-4 production: high ratio of IFN-gamma over IL-4
[10]
  isotype distribution of anti-hemagglutinin antibodies in serum: high concentrations of IgG2a
